Values of other authors as cited in patent US20230270707A1, “ORAL LIQUID PHARMACEUTICAL COMPOSITIONS OF ISOTRETINOIN” (IDRS Labs Private Limited, priority 2020, published 2023).
Like-named read-outs stand apart in the source and are kept apart here.

Key:
[1] = target plasma level of isotretinoin ≥2 μM

Structure (SMILES): CC1=C(/C=C/C(C)=C/C=C/C(C)=C\C(=O)O)C(C)(C)CCC1 [isotretinoin, 13-cis retinoic acid]
- patients who achieved the target Cmax ([1]; drug extracted from capsules and mixed with food or given via nasogastric tube): 55%
- patients who achieved the target Cmax ([1]; patients able to swallow the capsules): 92.5%
- solubility in water: practically insoluble in water
